Values joined by “and” are separate entries in the source; they are usually repeats but may differ in a detail not shown here. Identical values can stand only once.
Legend:
[1] = system: human lung cancer LC-11 strain; test: Comparative Example 1: radiotherapy enhancing effect of cisplatin on human lung cancer LC-11 strain transplanted into nude mice; type: in vivo, BALB/cA-nu mouse
Procedure: (a) Preparation of test solution I: The cisplatin solution (0.5 mg/mL) available from Bristol-Myers Squibb Company was used as it was. 0.1 mL per mouse body weight 10 g was administered for the dose of cisplatin 5 mg/kg, and […] per mouse body weight 10 g was administered for the dose of 7.5 mg/kg. (b) Method for radiation (X-ray) irradiation: Local irradiation was performed on a human tumor strain transplanted into the right femoral region of the mouse using MBR-1505R Type 2 X-ray Irradiation System of Hitachi Medical Corporation under an irradiation condition (irradiation position) so that exposure per mouse should be 2 Gy or 5 Gy. To prevent systemic irradiation, mice were placed in a storage box made of lead so that only their right leg should be exposed to radiation. (c) Test: The human lung cancer LC-11 strain subcutaneously transplanted into the back of a BALB/cA-nu mouse and grown beforehand were removed, cut into small fragments of about 2×2 mm^2 with scissors in physiological saline, and subcutaneously transplanted into the right femoral region of 5 to 6-week-old mice of the same strain with a transplantation needle. The mice were bred for at least 1 to 2 weeks and divided into the control group, the radiation alone group, the drug alone group, and the drug plus radiation group, so that the tumor volume and standard deviation (S.D.) in each group (n=6 per group) should be as uniform as possible. Then, drug administration and X-ray irradiation were initiated. For the drug treatment group, 0.1 mL per body weight 10 g of a cisplatin solution for the dose of 5 mg/kg or […] per body weight 10 g of this solution for the dose of 7.5 mg/kg was administered into the caudal vein on day 1. The radiation group was irradiated with 2 Gy of X-ray in the above-described manner on day 1, at the start of the test, and on day 8. For tumor-bearing mice in the control group (non-radiation/non-drug treatment group) and the radiation alone group, physiological saline was administered into the caudal vein on day 1. By using the above-mentioned numerical formula 1, the tumor volume of each mouse in each group was obtained prior to the start of treatment experiment, on days 3, 5, 8 (1 week later) and 11 during the treatment period, and days 15 (2 weeks later), 18, 22 (3 weeks later), 25, and 29 (4 weeks later) after completion of treatment. A relative tumor volume (RTV) to the tumor volume at the start of the test was obtained for each mouse. Then, the mean tumor growth inhibition rate (IR; %) in each treatment group based on the control group was obtained by using the above-mentioned numerical formula 2 on days 15, at the end of the treatment period, and 29, at 4 weeks later, and shown in Table 3.

[2] = system: human lung cancer strain (LC-11); test: Test Example 1: radiotherapy enhancing effect of CDHP on human lung cancer strain LC-11 transplanted into nude mice; type: in vivo, BALB/cA-nu mouse
Procedure: (a) Preparation of test solution: 5-Chloro-2,4-dihydroxypyridine (CDHP) was suspended in a 0.5% (W/V) hydroxypropylmethylcellulose (HPMC) solution at concentrations of 0.25 and 2.5 mg/mL, and the suspension was stirred with a stirrer at room temperature for about 10 minutes and ultrasonicated for about 5 minutes with ice cooling to obtain a drug solution of 2.5 or 25 mg/kg/day as CDHP. (b) Method for Radiation (X-ray) irradiation: Local irradiation was performed on a human tumor strain transplanted into the right femoral region of the mouse using MBR-1505R Type 2 X-ray Irradiation System of Hitachi Medical Corporation under an irradiation condition (irradiation position) so that exposure per mouse should be 2 Gy or 5 Gy. To prevent systemic irradiation, mice were placed in a storage box made of lead so that only their right leg should be exposed to radiation. (c) Test: The human lung cancer strain (LC-11) subcutaneously transplanted into the back of a BALB/cA-nu mouse and grown beforehand were removed, cut into small fragments of about 2×2 mm^2 with scissors in physiological saline, and subcutaneously transplanted into the right femoral region of 5 to 6-week-old mice of the same strain with a transplantation needle. The mice were bred for at least 1 to 2 weeks and divided into the control group, the radiation alone group, the drug alone group, and the drug plus radiation group, so that the tumor volume and standard deviation (S.D.) in each group (n=6 per group) should be as uniform as possible. Then, drug administration and X-ray irradiation were initiated. The drug treatment group was orally administered with 0.1 mL each of the above-described CDHP drug solution per body weight 10 g once daily for 14 consecutive days using a sonde for oral administration. The radiation group was irradiated with 2 Gy or 5 Gy of X-ray within about 1 hour after administration of the CDHP drug solution in the above-described manner on day 1, at the start of the test, and on day 8. Tumor-bearing mice in the control group (non-radiation/non-drug treatment group) and the radiation alone group were orally administered with 0.5% HPMC solution alone in the same manner for 14 consecutive days.
By using the following numerical formula 1, the tumor volume of each mouse in each group was obtained prior to the start of treatment experiment, on days 3, 5, 8 (1 week later) and 11 during the treatment period, and days 15 (2 weeks later), 18, 22 (3 weeks later), 25, and 29 (4 weeks later) after completion of the treatment. A relative tumor volume (RTV) to the tumor volume at the start of the test was obtained for each mouse. […] The mean tumor growth inhibition rate (IR; %) in each treatment group based on the control group was obtained by using the following numerical formula 2 on days 15, at the end of the treatment period, and 29 at 4 weeks later and shown in Table 1.

normal skin = test: Test Example 3: effect of irradiation on disorders of normal tissues (normal skin), severity by method of Douglas et al.; type: in vivo, BALB/cA-nu mice; conditions: CDHP 50 mg/kg/day oral 7 days + 20 Gy X-ray on days 1 and 3; 6 animals; radiation alone: grades 1.5 or higher in all 6 after day 14
Procedure: (a) Preparation of test solution: CDHP was suspended in a 0.5% (W/V) HPMC solution at a concentration of 5.0 mg/mL, and the suspension was stirred with a stirrer at room temperature for about 10 minutes and ultrasonicated with ice cooling for about 5 minutes to obtain a drug solution of 50 mg/kg/day as CDHP. (b) Method for X-ray irradiation: Local irradiation was performed on the right femoral region of the mouse using MBR-1505R Type 2 X-ray Irradiation System of Hitachi Medical Corporation under an irradiation condition (irradiation position) so that exposure per mouse should be 20 Gy. To prevent systemic irradiation, mice were placed in a storage box made of lead so that only their right leg should be exposed to radiation. (c) Test: Six to 8-week-old BALB/cA-nu mice were divided into the control group, the radiation alone group, and the drug plus radiation group, each consisting of 6 animals, and drug administration and X-ray irradiation were initiated. […] (d) Determination of severity of skin disorders: From 7 days after the end of the test, severity of skin disorders in the femoral region caused by irradiation was determined by the method of Douglas, et al. (Douglas B G, et al.: The effect of multiple small doses of X-rays on skin reactions in the mice and a basic interpretation. Radiation Res., 66: 401-426, 1976.).

[3] = system: human lung cancer strain (LC-11); test: Test Example 2: radiotherapy enhancing effect of CNDP on human lung cancer strain LC-11 transplanted into nude mice; type: in vivo, BALB/cA-nu mouse
Procedure: (a) Preparation of test solution: 3-Cyano-2,6-dihydroxypyridine (CNDP) was suspended in a 0.5% (W/V) hydroxypropylmethylcellulose (HPMC) solution at concentrations of 2.5 and 5.0 mg/mL, and the suspension was stirred with a stirrer at room temperature for about 10 minutes and ultrasonicated for about 5 minutes with ice cooling to obtain a drug solution of 25 or 50 mg/kg/day as CNDP. (b) Method for radiation (X-ray) irradiation: Local irradiation was performed on a human tumor strain transplanted into the right femoral region of the mouse using MBR-1505R Type 2 X-ray Irradiation System of Hitachi Medical Corporation under an irradiation condition (irradiation position) so that exposure per mouse should be 2 Gy or 5 Gy. To prevent systemic irradiation, mice were placed in a storage box made of lead so that only their right leg should be exposed to radiation. (c) Test: The human lung cancer strain (LC-11) subcutaneously transplanted into the back of a BALB/cA-nu mouse and grown beforehand were removed, cut into small fragments of about 2×2 mm^2 with scissors in physiological saline, and subcutaneously transplanted into the right femoral region of 5 to 6-week-old mice of the same strain with a transplantation needle. The mice were bred for at least 1 to 2 weeks and divided into the control group, the radiation alone group, the drug alone group, and the drug plus radiation group, so that the tumor volume and standard deviation (S.D.) in each group (n=6 per group) should be as uniform as possible. Then, drug administration and X-ray irradiation were initiated. The drug treatment group was orally administered with 0.1 mL of the above-described 5 mg/mL CNDP drug solution per body weight 10 g once daily for 14 consecutive days using a sonde for oral administration. The radiation group was irradiated with 2 Gy or 5 Gy of X-ray within about 1 hour after administration of the CNDP drug solution in the above-described manner on day 1, at the start of the test, and on day 8. Tumor-bearing mice in the control group (non-radiation/non-drug treatment group) and the radiation alone group were orally administered with […] solution alone in the same manner for 14 consecutive days.
By using the above-mentioned numerical formula 1, the tumor volume of each mouse in each group was obtained prior to the start of treatment experiment, on days 3, 5, 8, (1 week later) and 11 during the treatment period, and day 15 (2 weeks later) after completion of treatment. A relative tumor volume (RTV) to the tumor volume at the start of the test was obtained for each mouse (FIG. 1).

[NH2][Pt]([NH2])([Cl])[Cl] [CDDP, cisplatin]
IR (%) Day 15 ([1]; CDDP 5.0 mg/kg caudal vein on day 1 + X-ray 2 Gy on days 1 and 8, Day 15): 53.8% | IR (%) Day 29 ([1]; CDDP 5.0 mg/kg caudal vein on day 1 + X-ray 2 Gy on days 1 and 8, Day 29): 46.8% | IR (%) Day 15 ([1]; CDDP 5.0 mg/kg caudal vein on day 1, no X-ray, Day 15): 39.9% | IR (%) Day 29 ([1]; CDDP 5.0 mg/kg caudal vein on day 1, no X-ray, Day 29): 45.6% | enhancement of antitumor effects by combination compared with CDDP alone ([1]; CDDP 5 mg/kg or 7.5 mg/kg and 2-Gy X-ray irradiation): did not significantly enhance antitumor effects | IR (%) Day 15 ([1]; CDDP 7.5 mg/kg caudal vein on day 1 + X-ray 2 Gy on days 1 and 8, Day 15): 54.6% | IR (%) Day 29 ([1]; CDDP 7.5 mg/kg caudal vein on day 1 + X-ray 2 Gy on days 1 and 8, Day 29): 66.8% | IR (%) Day 15 ([1]; CDDP 7.5 mg/kg caudal vein on day 1, no X-ray, Day 15): 55.8% | IR (%) Day 29 ([1]; CDDP 7.5 mg/kg caudal vein on day 1, no X-ray, Day 29): 60.2% | radiotherapy enhancing effect ([1]; series of examinations using human lung cancer LC-11 strain): very weak

Oc1cc(O)c(Cl)cn1 [CDHP, 5-chloro-2,4-dihydroxypyridine]
Tumor growth inhibition rate IR(%) Day 15 ([2]; CDHP 2.5 mg/kg oral once daily 14 days + X-ray 2 Gy on days 1 and 8, Day 15): 41% | Tumor growth inhibition rate IR(%) Day 29 ([2]; CDHP 2.5 mg/kg oral once daily 14 days + X-ray 2 Gy on days 1 and 8, Day 29): 25% and 24.7* % | Tumor growth inhibition rate IR(%) Day 15 ([2]; CDHP 2.5 mg/kg oral once daily 14 days, X-ray 0 Gy, Day 15): 17.2% | Tumor growth inhibition rate IR(%) Day 29 ([2]; CDHP 2.5 mg/kg oral once daily 14 days, X-ray 0 Gy, Day 29): −7.9% | Tumor growth inhibition rate IR(%) Day 15 ([2]; CDHP 25 mg/kg oral once daily 14 days + X-ray 2 Gy on days 1 and 8, Day 15): 57% and 57.2% | Tumor growth inhibition rate IR(%) Day 29 ([2]; CDHP 25 mg/kg oral once daily 14 days + X-ray 2 Gy on days 1 and 8, Day 29): 46% and 46.3** % | Tumor growth inhibition rate IR(%) Day 15 ([2]; CDHP 25 mg/kg oral once daily 14 days, X-ray 0 Gy, Day 15): 9.7% | Tumor growth inhibition rate IR(%) Day 29 ([2]; CDHP 25 mg/kg oral once daily 14 days, X-ray 0 Gy, Day 29): −15.3% | enhancement of the effect of X-ray ([2]; CDHP 2.5 and 25 mg/kg with 2-Gy X-ray irradiation in combination): significantly enhanced the effect of X-ray | antitumor effect of drug alone ([2]; CDHP alone, both doses 2.5 and 25 mg/kg): hardly showed any antitumor effect | serious adverse drug reactions (body weight loss, skin disorders) ([2]; mice receiving CDHP and X-ray in combination): no serious adverse drug reactions such as body weight loss and skin disorders were observed | severity of skin disorders in the femoral region caused by irradiation (normal skin): mild disorders (redness, swelling) were observed only in 1 or 2 mice

N#Cc1ccc(O)nc1O [CNDP, 3-cyano-2,6-dihydroxypyridine]
Tumor growth inhibition rate (IR) (%) Day 11 ([3]; CNDP 25 mg/kg oral once daily + X-ray 2 Gy on days 1 and 8, Day 11): 44.7% | Tumor growth inhibition rate IR(%) Day 15 ([3]; CNDP 25 mg/kg oral once daily + X-ray 2 Gy on days 1 and 8, Day 15): 54.6% | Tumor growth inhibition rate (IR) (%) Day 11 ([3]; CNDP 50 mg/kg oral once daily 14 days, X-ray 0 Gy, Day 11): 1.8% | Tumor growth inhibition rate IR(%) Day 15 ([3]; CNDP 50 mg/kg oral once daily 14 days, X-ray 0 Gy, Day 15): 8.2% | Tumor growth inhibition rate (IR) (%) Day 11 ([3]; CNDP 50 mg/kg oral once daily + X-ray 2 Gy on days 1 and 8, Day 11): 44.4% | Tumor growth inhibition rate IR(%) Day 15 ([3]; CNDP 50 mg/kg oral once daily + X-ray 2 Gy on days 1 and 8, Day 15): 60.4% | enhancement of the antitumor effect of X-ray ([3]; CNDP 25 and 50 mg/kg with 2-Gy X-ray irradiation in combination): significantly increased the antitumor effect of 2-Gy X-ray | antitumor effect of drug alone ([3]; CNDP alone, high dose of 50 mg/kg): hardly showed any antitumor effect | serious adverse drug reactions (body weight loss, skin disorders) ([3]; mice receiving CNDP and X-ray in combination): no serious adverse drug reactions such as body weight loss and skin disorders were observed

— patent US8569324B2, “Potentiator for radiation therapy comprising pyridine derivative as active ingredient” (Taiho Pharmaceutical Co., Ltd., priority 2005, dated 2013)
